These are literature values, as cited in patent publication US20190275270A1, “SYSTEM AND METHOD FOR ARRESTING DEBILITATING MIGRAINE EVENTS” (priority 2018, published 2019).

One may read the IC50 as the concentration that gives 50% inhibition.

Data set [1] deals with T1, CB2 (Homo sapiens, UniProt P34972).
The target of data set [2] is T2, CB1 (Homo sapiens, UniProt P21554).
The target in data set [3] is T1, CB2. The source holds these as a separate data set.
For data set [4], the system named is nitric oxide (NO) production. The following applies: read-out: inhibits NO production, IC50.
Data set [5] has as its target T2, CB1. This is another data set of the same source.
A further data set concerns migraine incidences. The following applies: used in a preventative context.

T2 sequence (P21554 whole entry, species assumed): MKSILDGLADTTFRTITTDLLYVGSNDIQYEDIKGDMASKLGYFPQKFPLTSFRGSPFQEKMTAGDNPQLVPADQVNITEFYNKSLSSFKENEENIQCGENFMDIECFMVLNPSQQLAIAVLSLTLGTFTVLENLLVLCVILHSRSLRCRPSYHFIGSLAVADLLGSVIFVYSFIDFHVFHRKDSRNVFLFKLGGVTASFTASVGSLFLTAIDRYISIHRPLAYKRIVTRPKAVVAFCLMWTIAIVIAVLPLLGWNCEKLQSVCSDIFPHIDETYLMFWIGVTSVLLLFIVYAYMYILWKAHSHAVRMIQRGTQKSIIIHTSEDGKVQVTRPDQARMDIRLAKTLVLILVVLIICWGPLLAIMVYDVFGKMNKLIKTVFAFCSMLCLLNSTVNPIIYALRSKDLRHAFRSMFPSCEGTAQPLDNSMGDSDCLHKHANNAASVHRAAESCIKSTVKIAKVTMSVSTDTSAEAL
T1 sequence (P34972 whole entry, species assumed): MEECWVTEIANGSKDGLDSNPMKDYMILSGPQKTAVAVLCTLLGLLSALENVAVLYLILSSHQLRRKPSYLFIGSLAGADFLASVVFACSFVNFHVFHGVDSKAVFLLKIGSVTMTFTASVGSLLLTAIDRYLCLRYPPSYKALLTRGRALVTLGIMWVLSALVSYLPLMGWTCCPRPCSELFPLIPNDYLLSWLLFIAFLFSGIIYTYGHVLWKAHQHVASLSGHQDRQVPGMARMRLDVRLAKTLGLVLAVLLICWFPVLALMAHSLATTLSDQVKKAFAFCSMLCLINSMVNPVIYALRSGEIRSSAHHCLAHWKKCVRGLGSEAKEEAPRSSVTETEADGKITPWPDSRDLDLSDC

On to `CCCCCCC[C@@H](C/C=C/CCC(=O)N(C)C/C(=C/Cl)C/C(=C\C(=O)N1CC(O)CC1=O)OC)OC` (stereo partly drawn) [Malyngamide B], for which the “binding to CB2” value on CB2 [1] was “moderate potencies”. In addition, at CB1 [2], the “binding to CB1” value was “moderate potencies”.
As to `C=CCc1ccc(O)c(-c2cc(CC=C)ccc2O)c1` [Magnolol], the “activity at CB2” value on CB2 [3] is recorded as “partial agonist”. The half-maximal inhibitory concentration (IC50) in data set [4] is roughly 6.2 µM.
Take `C=CCc1ccc(O)c(-c2ccc(O)c(CC=C)c2)c1` [honokiol]: at CB2 [3], the “activity at CB2” value was “antagonistic properties”. Further, the “activity at CB1” value on CB1 [5] is given as “full agonistic activity”.
Regarding caryophyllene, the “binding to CB2” value on CB2 [1] is listed as “binds”. The “binding to CB1” value on CB1 [2] is given as “binds”.
On to `C=C(C)[C@@H]1CCC(C)=C[C@H]1c1c(O)cc(CCCCC)cc1O` [CBD, cannabidiol], for which the “cut in migraine incidences” value in the data set with migraine incidences was “more than 50%”.
